In ChEMBL document CHEMBL1201862, “PubChem BioAssay data set” (2004):
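Where inhibition never reached the appropriate level, the endpoint shown equals the highest concentration tested. Otherwise, values were interpolated linearly from a five-concentration, 48-hour dose response in 96-well plates. GI50 = concentration required for 50% inhibition of growth.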 The source made the active and inactive calls. No stated cut-off is given here; in the data, active = GI50 up to about 1.1 µM and inactive = higher.

Legend:
Assay in all cases: NCI-60 cell line screen, 48 h
[1] = system: KM12
[2] = system: HCC 2998
[3] = system: Malme-3M
[4] = system: HT-29
[5] = system: LOX IMVI
[6] = system: SN12C
[7] = system: SNB-78
[8] = system: SF-268
[9] = system: NCI-H522
[10] = system: OVCAR-5
[11] = system: UACC-257
[12] = system: EKVX
[13] = system: OVCAR-3
[14] = system: TK-10
[15] = system: SF-295
[16] = system: HL-60
[17] = system: DMS-114
[18] = system: MDA-N
[19] = system: NCI/ADR-RES
[20] = system: Hs-578T

Row | SMILES | GI50 [1] | GI50 [2] | GI50 [3] | GI50 [4] | GI50 [5] | GI50 [6] | GI50 [7] | GI50 [8] | GI50 [9] | GI50 [10] | GI50 [11] | GI50 [12] | GI50 [13] | GI50 [14] | GI50 [15] | GI50 [16] | GI50 [17] | GI50 [18] | GI50 [19] | GI50 [20]
1 | Nc1cccc2c1C(=O)c1cccc(N)c1C2=O | > 100 µM (inactive) | > 100 µM (inactive) | > 100 µM (inactive) | > 100 µM (inactive) | > 100 µM (inactive) | > 100 µM (inactive) | > 100 µM (inactive) | > 100 µM (inactive) | > 100 µM (inactive) | > 100 µM (inactive) | > 100 µM (inactive) | > 100 µM (inactive) | > 100 µM (inactive) | > 100 µM (inactive) | – | – | – | – | – | –
2 | Cc1ccc([S+](c2ccccc2)c2cc(C)ccc2C)cc1 (stereo not given) | 2.85 µM (inactive) | 1.7 µM (inactive) | 0.271 µM (active) | – | 2.35 µM (inactive) | 5.94 µM (inactive) | – | 6.64 µM (inactive) | 3.13 µM (inactive) | – | 1.48 µM (inactive) | 1.17 µM (inactive) | 2.26 µM (inactive) | – | 12.4 µM (inactive) | 1.97 µM (inactive) | 1.08 µM (active) | – | – | –
3 | CCOC(=O)c1cc(/C=C/C(C)=C/C(=O)OC)oc1C | > 100 µM (inactive) | – | > 100 µM (inactive) | > 100 µM (inactive) | > 100 µM (inactive) | – | > 100 µM (inactive) | > 100 µM (inactive) | 45.6 µM (inactive) | > 100 µM (inactive) | > 100 µM (inactive) | > 100 µM (inactive) | > 100 µM (inactive) | > 100 µM (inactive) | > 100 µM (inactive) | > 100 µM (inactive) | > 100 µM (inactive) | – | – | –
4 | [O-][S+]1Nc2c(Cl)cc(Cl)c3c(Cl)cc(Cl)c(c23)N1 | 44.6 µM (inactive) | 28.4 µM (inactive) | 43.8 µM (inactive) | 41.9 µM (inactive) | 32.8 µM (inactive) | 34.6 µM (inactive) | – | 34.6 µM (inactive) | 22.7 µM (inactive) | 27.8 µM (inactive) | 54.7 µM (inactive) | 59.7 µM (inactive) | 30.6 µM (inactive) | 42.6 µM (inactive) | 53.1 µM (inactive) | 34.2 µM (inactive) | 36.3 µM (inactive) | – | – | –
5 | COc1cc(NS(=O)(=O)c2ccc(C)cc2)c2nccnc2c1 | 32.6 µM (inactive) | 47.6 µM (inactive) | 37.2 µM (inactive) | 36.8 µM (inactive) | 28 µM (inactive) | 39.3 µM (inactive) | – | 24.7 µM (inactive) | 20.7 µM (inactive) | 89.7 µM (inactive) | 29.8 µM (inactive) | 39.8 µM (inactive) | 32.4 µM (inactive) | 47 µM (inactive) | 26.7 µM (inactive) | 13 µM (inactive) | 14.6 µM (inactive) | – | – | –
6 | Cc1nc(-c2nc(C)c(C(=O)/C=C/c3ccc(N(C)C)cc3)s2)sc1C(=O)/C=C/c1ccc(N(C)C)cc1 | 40.9 µM (inactive) | > 100 µM (inactive) | 66.4 µM (inactive) | > 10 µM (inactive) | 38.3 µM (inactive) | > 100 µM (inactive) | – | > 100 µM (inactive) | 31.3 µM (inactive) | > 100 µM (inactive) | > 100 µM (inactive) | > 100 µM (inactive) | > 100 µM (inactive) | > 100 µM (inactive) | 31.9 µM (inactive) | 46 µM (inactive) | > 100 µM (inactive) | – | – | –
7 | CCC1=CC2CN3Cn4c(c(COCc5c6n(c7ccccc57)CN5CC7C=C(CC)C5C6(C(=O)OC)C7)c5ccccc54)C(C(=O)OC)(C2)C13 | > 100 µM (inactive) | – | > 100 µM (inactive) | > 100 µM (inactive) | > 100 µM (inactive) | > 100 µM (inactive) | – | 66.8 µM (inactive) | > 100 µM (inactive) | – | > 100 µM (inactive) | > 100 µM (inactive) | > 100 µM (inactive) | > 100 µM (inactive) | > 100 µM (inactive) | > 100 µM (inactive) | > 100 µM (inactive) | – | – | –
8 | O=C(/C=C/c1ccc[nH]1)c1ccccc1 | > 100 µM (inactive) | – | > 100 µM (inactive) | > 100 µM (inactive) | > 100 µM (inactive) | > 100 µM (inactive) | > 100 µM (inactive) | > 100 µM (inactive) | > 100 µM (inactive) | > 100 µM (inactive) | > 100 µM (inactive) | – | > 100 µM (inactive) | > 100 µM (inactive) | > 100 µM (inactive) | 41.2 µM (inactive) | > 100 µM (inactive) | – | – | –
9 | Brc1cccc(C2SCc3nc4ccccc4n32)c1 (stereo not given) | 16.1 µM (inactive) | – | 24 µM (inactive) | 20.6 µM (inactive) | 14.6 µM (inactive) | 13.8 µM (inactive) | 28.3 µM (inactive) | 33.5 µM (inactive) | 13.9 µM (inactive) | 6.01 µM (inactive) | – | 18.7 µM (inactive) | 15.2 µM (inactive) | 25.1 µM (inactive) | 27.1 µM (inactive) | 7.94 µM (inactive) | 13.7 µM (inactive) | – | – | –
10 | CCOC(=O)C1=C(Nc2cccc3ccccc23)OCC1=O | > 100 µM (inactive) | > 100 µM (inactive) | > 100 µM (inactive) | > 100 µM (inactive) | – | > 100 µM (inactive) | > 100 µM (inactive) | > 100 µM (inactive) | > 100 µM (inactive) | > 100 µM (inactive) | > 100 µM (inactive) | > 100 µM (inactive) | > 100 µM (inactive) | – | – | – | – | – | – | –
11 | OC(CC1CCCCN1)c1ccc2c(c1)oc1ccccc12 (stereo not given) | > 100 µM (inactive) | 30.4 µM (inactive) | 38.9 µM (inactive) | 28.2 µM (inactive) | 56 µM (inactive) | > 100 µM (inactive) | – | > 100 µM (inactive) | 79.8 µM (inactive) | 50.1 µM (inactive) | 31 µM (inactive) | 49 µM (inactive) | > 100 µM (inactive) | 72.1 µM (inactive) | 99.1 µM (inactive) | > 100 µM (inactive) | – | 40.8 µM (inactive) | > 100 µM (inactive) | 87.7 µM (inactive)
12 | CCNC(=S)N/N=C(\C)c1cccc(C)n1 | 20.3 µM (inactive) | 3.13 µM (inactive) | 2.39 µM (inactive) | 3.09 µM (inactive) | 18.6 µM (inactive) | 11.8 µM (inactive) | – | 2.4 µM (inactive) | 0.897 µM (active) | 9.31 µM (inactive) | 5.2 µM (inactive) | 2.04 µM (inactive) | 0.299 µM (active) | > 100 µM (inactive) | 26.9 µM (inactive) | 3.47 µM (inactive) | – | 28.2 µM (inactive) | 8.45 µM (inactive) | > 100 µM (inactive)
13 | O=C(O)CSCC(=O)Nc1ccc2cccc3c2c1CC3 | > 100 µM (inactive) | > 100 µM (inactive) | > 100 µM (inactive) | > 100 µM (inactive) | > 100 µM (inactive) | > 100 µM (inactive) | – | > 100 µM (inactive) | > 100 µM (inactive) | > 100 µM (inactive) | > 100 µM (inactive) | > 100 µM (inactive) | > 100 µM (inactive) | > 100 µM (inactive) | > 100 µM (inactive) | > 100 µM (inactive) | – | > 100 µM (inactive) | > 100 µM (inactive) | > 100 µM (inactive)
